Results as given in US9896423B2, “Deuterium substituted 1-[2-(2,4-dimethyl-phenylsulfanyl)-phenyl]piperazine compound or derivatives thereof, and pharmaceutical composition and use thereof” (Jiangsu Jibeier Pharmaceutical Co. Ltd., priority 2014, dated 2018).
Values joined by “and” are separate entries in the source; they are usually repeats but may differ in a detail not shown here. Identical values can stand only once. Counter-ions that a name gives are not always drawn. Like-named read-outs stand apart in the source and are kept apart here.

Experiments:
Male SD rats = experiment: Rats swimming test; assay type: in vivo; conditions: for effect on length of time that the rats stopped swimming vs blank control: 14 days; for Duration without Move within 5 min: rats swimming, gavage 14 days, n = 10, x ± s
Text: The following method is used for testing the antidepression effect of the compound of the present application. ICR mice or SD rats, gavaged for two successive weeks, were subjected to mice swimming test, mice tail suspension test and rats swimming test. See below for details of the tests and results.
Male SD rats weighing 200 to 220 g were used and they were fed with sterilized standard feed. The medicaments were the same as those in the mice tail suspension test, but the dosage administered to rats was half of that to mice.
Drug solution preparation: Since the dosage applied on rats was 1 ml/100 g body weight, the medicament solutions used in this test had the same concentrations as those used on mice.
The apparatus was the same as that in the […].
The rats were fasted for 4 hours, put in a round glass tank (ø 18 cm×h 40 cm, with water of 15 cm depth and at a temperature of 25° C.), and were allowed to swim for 15 min. One tank accommodated one rat at a time. The tank was refilled with clean water for another rat after one rat finished swimming. The rats were dried with a hot-air blower after swimming.
The forty rats were divided into 4 groups, each of which has 10 rats, according to the Excel random grouping.
The medicaments were correspondingly administered 1 ml/100 g body weight by gavage, once a day, to the animals in each test group for 14 successive days. The rat swimming test was performed one hour later after the last administration.
The data was given as “average±standard deviation” (x±s). One-way analysis of variance (ANOVA) was used for data difference statistics. Differences among the groups were determined by P<0.05.

[1] = Pharmacokinetic test in rats, intravenous injection; assay type: in vivo, SD rats; conditions: 2 mg/kg iv; for concentration at 0.05 h / concentration at 0.133 h / concentration at 4 h / concentration at 6 h / concentration at 9 h / concentration at 12 h / concentration at 24 h: male, SD, rat, plasma, intravenous, 2 mg/kg
Protocol: The preferred compound of the present disclosure was assessed in rats for its pharmacokinetic profile.
SD rats, male and female, weighing 150 to 250 g
Mobile phase: 10 mM ammonium formate aqueous solution:methanol=15:85
The ionization source was electrospray ionization source. The detection mode was positive mode. Multiple reaction monitoring (MRM) was used as the scanning mode. The ion reaction for the quantitative analysis was the following: m/z was 305.2\150.0 for XX, and 256.1\167.1 for diphenhydramine (the internal standard).
Four male SD rats were taken. The dosage was calculated as 5 mL/kg body weight and 2 mg/kg. XX or YY was dissolved in DMSO (3% of a total volume) and castor oil (3% of the total volume) was added to the solution, followed by agitating with a vortex mixer. Subsequently, saline was added to the mixture to the total volume to afford the intravenous injection for the rats. The injections were intravenously administered to four male SD rats. Blood from the rats' orbits was collected 3 min, 8 min, 15 min, 30 min, 1 hr, 2 hr, 3 hr, 4 hr, 6 hr, 9 hr, 12 hr and 24 hr later after the injection, respectively.
After the blood collection, the tubes were immediately gently turned upside down at least five times to ensure sufficient mixing, and placed on ice. Heparin was added for anticoagulation. The samples were centrifuged at 8000 rpm for 5 min to separate serum from erythrocyte. The serum was transferred with a pipettor to 2 mL polypropylene (PP) tubes, which were marked with the name of the compound and the time points, and stored in a refrigerator at −40° C. before LC-MS analysis. Samples with high concentrations were diluted with rat blank plasma.
2.5 μL of Meth-H2O and 5 μL of the internal standard solution (20 ng/mL, IS) were added to 50 μL of the plasma. Subsequently, 150 μL of methanol was added to the mixture to precipitate protein and the samples were then centrifuged at 13000 rpm for 5 min. The upper organic phase was taken out, filtrated with a 0.22 μM microporous membrane, and 2 μL of the sample was injected for the LC-MS analysis.

[2H]C([2H])([2H])c1ccc(Sc2ccccc2N2CCNCC2)c(C([2H])([2H])[2H])c1 [XX, 1-{2-[2,4-bis(trideuteriomethyl)phenylsulfanyl]phenyl}piperazine hydrobromic acid salt]
effect on length of time that the rats stopped swimming vs blank control (Male SD rats; 0.75 mg/kg gavage): showed a tendency to shorten | effect on length of time that the rats stopped swimming vs blank control (Male SD rats; 1.5 mg/kg gavage): markedly shortened | Duration without Move within 5 min (Male SD rats; 0.75 mg/kg): 242.4 ± 43.2 s | Duration without Move within 5 min (Male SD rats; 1.5 mg/kg): 226.2 ± 43.2 s | Concentrations in Plasma of Rats after Intravenous Injection ([1]; 0.05 h after administration, individual rats): 123.2 ng/mL and 127.2 ng/mL and 121.4 ng/mL | Concentrations in Plasma of Rats after Intravenous Injection ([1]; 0.133 h, individual rats): 89.0 ng/mL and 85.9 ng/mL and 86.8 ng/mL | Concentrations in Plasma of Rats after Intravenous Injection ([1]; 0.25 h, individual rats): 78.8 ng/mL and 77.3 ng/mL and 77.1 ng/mL | Concentrations in Plasma of Rats after Intravenous Injection ([1]; 0.5 h, individual rats): 76.9 ng/mL and 71.3 ng/mL and 75.8 ng/mL | Concentrations in Plasma of Rats after Intravenous Injection ([1]; 1 h, individual rats): 73.3 ng/mL and 68.6 ng/mL and 65.6 ng/mL | Concentrations in Plasma of Rats after Intravenous Injection ([1]; 2 h, individual rats): 69.5 ng/mL and 68.1 ng/mL and 54.4 ng/mL | Concentrations in Plasma of Rats after Intravenous Injection ([1]; 3 h, individual rats): 53.4 ng/mL and 49.8 ng/mL and 38.2 ng/mL | Concentrations in Plasma of Rats after Intravenous Injection ([1]; 4 h, individual rats): 38.5 ng/mL and 27.6 ng/mL and 25.1 ng/mL | Concentrations in Plasma of Rats after Intravenous Injection ([1]; 6 h, individual rats): 28.4 ng/mL and 25.8 ng/mL and 24.5 ng/mL | Concentrations in Plasma of Rats after Intravenous Injection ([1]; 9 h, individual rats): 16.1 ng/mL and 18.6 ng/mL and 14.1 ng/mL | Concentrations in Plasma of Rats after Intravenous Injection ([1]; 12 h, individual rats): 7.86 ng/mL and 7.50 ng/mL and 7.18 ng/mL | Concentrations in Plasma of Rats after Intravenous Injection ([1]; 24 h, individual rats): 2.57 ng/mL and 2.89 ng/mL and 3.68 ng/mL | concentration at 0.05 h ([1]; 0.05 h, mean, read-out: Concentrations in Plasma of Rats after Intravenous Injection, Mean ± SD): 126 ± 5.68 ng/mL | concentration at 0.05 h ([1]; 0.05 h after administration, individual rats, read-out: Concentrations in Plasma of Rats after Intravenous Injection): 134 ng/mL | concentration at 0.133 h ([1]; 0.133 h, individual rats, read-out: Concentrations in Plasma of Rats after Intravenous Injection): 86.5 ng/mL | concentration at 0.133 h ([1]; 0.133 h, mean, read-out: Concentrations in Plasma of Rats after Intravenous Injection, Mean ± SD): 87.1 ± 1.35 ng/mL | concentration at 4 h ([1]; 4 h, individual rats, read-out: Concentrations in Plasma of Rats after Intravenous Injection): 27.2 ng/mL | concentration at 4 h ([1]; 4 h, mean, read-out: Concentrations in Plasma of Rats after Intravenous Injection, Mean ± SD): 29.6 ± 6.03 ng/mL | concentration at 6 h ([1]; 6 h, individual rats, read-out: Concentrations in Plasma of Rats after Intravenous Injection): 25.8 ng/mL | concentration at 6 h ([1]; 6 h, mean, read-out: Concentrations in Plasma of Rats after Intravenous Injection, Mean ± SD): 26.1 ± 1.64 ng/mL | concentration at 9 h ([1]; 9 h, individual rats, read-out: Concentrations in Plasma of Rats after Intravenous Injection): 14.9 ng/mL | concentration at 9 h ([1]; 9 h, mean, read-out: Concentrations in Plasma of Rats after Intravenous Injection, Mean ± SD): 15.9 ± 1.96 ng/mL | concentration at 12 h ([1]; 12 h, individual rats, read-out: Concentrations in Plasma of Rats after Intravenous Injection): 8.44 ng/mL | concentration at 12 h ([1]; 12 h, mean, read-out: Concentrations in Plasma of Rats after Intravenous Injection, Mean ± SD): 7.75 ± 0.54 ng/mL | concentration at 24 h ([1]; 24 h, individual rats, read-out: Concentrations in Plasma of Rats after Intravenous Injection): 3.38 ng/mL | concentration at 24 h ([1]; 24 h, mean, read-out: Concentrations in Plasma of Rats after Intravenous Injection, Mean ± SD): 3.13 ± 0.5 ng/mL
